Measured values published in publication PMC9699600, “Characterization of a Family of Scorpion Toxins Modulating Ca^2+-Activated Cl^− Current in Vascular Myocytes” (Toxins, 2022).

Tests used:
[1] = system: Ca2+-activated and voltage-activated K+ currents; experiment: Ca2+-activated and voltage-activated K+ currents, patch clamp; assay type: cell-based, rat; conditions: 100 nM, sequential application
Method: For K^+ current recording, the patch-clamp pipette contained 130 mM KCl and the external solution contained 5.6 mM KCl. Ca^2+-activated and voltage-activated K^+ currents were elicited by depolarizing pulses from −80 to 0 mV and Ca^2+-activated K^+ currents were activated by the opening of Ca^2+ channel during the depolarization step.
Voltage-clamp and membrane current recordings were made with a standard patch-clamp technique using a List EPC-7 patch-clamp amplifier (Darmstadt-Eberstadt, Germany). Patch pipettes had resistances of 3–4 MΩ. […] Patch-clamp experiments were carried out at 30 ± 1 °C.
The normal physiological solution contained (in mM): NaCl 130, KCl 5.6, MgCl2 1, CaCl2 2, glucose 11 and HEPES 10, pH 7.4 with NaOH. The basic pipette solution contained (in mM) CsCl 130, HEPES 10 and pH 7.3 with NaOH (CsCl was replaced by KCl for potassium current measurements). […] Lqh peptides, chlorotoxin and other toxins were added in a bath solution.

[2] = biological target: T1, Ca2+-activated Cl− current (TMEM16A/Ano1) in rat portal vein myocytes (Rattus norvegicus, UniProt A0A8I6GL36); experiment: Ca2+-activated Cl− current evoked by caffeine, whole-cell patch clamp; assay type: cell-based; conditions: 1 µM external application, 10 mM caffeine, holding potential −50 mV
T1 construct: Isolated myocytes from rat portal veins were obtained by enzymatic dispersion; endogenous in cells; host or cells: freshly dissociated rat portal vein smooth muscle cells (short-term primary culture, used within 24 h)
T1 sequence (A0A8I6GL36 1-990): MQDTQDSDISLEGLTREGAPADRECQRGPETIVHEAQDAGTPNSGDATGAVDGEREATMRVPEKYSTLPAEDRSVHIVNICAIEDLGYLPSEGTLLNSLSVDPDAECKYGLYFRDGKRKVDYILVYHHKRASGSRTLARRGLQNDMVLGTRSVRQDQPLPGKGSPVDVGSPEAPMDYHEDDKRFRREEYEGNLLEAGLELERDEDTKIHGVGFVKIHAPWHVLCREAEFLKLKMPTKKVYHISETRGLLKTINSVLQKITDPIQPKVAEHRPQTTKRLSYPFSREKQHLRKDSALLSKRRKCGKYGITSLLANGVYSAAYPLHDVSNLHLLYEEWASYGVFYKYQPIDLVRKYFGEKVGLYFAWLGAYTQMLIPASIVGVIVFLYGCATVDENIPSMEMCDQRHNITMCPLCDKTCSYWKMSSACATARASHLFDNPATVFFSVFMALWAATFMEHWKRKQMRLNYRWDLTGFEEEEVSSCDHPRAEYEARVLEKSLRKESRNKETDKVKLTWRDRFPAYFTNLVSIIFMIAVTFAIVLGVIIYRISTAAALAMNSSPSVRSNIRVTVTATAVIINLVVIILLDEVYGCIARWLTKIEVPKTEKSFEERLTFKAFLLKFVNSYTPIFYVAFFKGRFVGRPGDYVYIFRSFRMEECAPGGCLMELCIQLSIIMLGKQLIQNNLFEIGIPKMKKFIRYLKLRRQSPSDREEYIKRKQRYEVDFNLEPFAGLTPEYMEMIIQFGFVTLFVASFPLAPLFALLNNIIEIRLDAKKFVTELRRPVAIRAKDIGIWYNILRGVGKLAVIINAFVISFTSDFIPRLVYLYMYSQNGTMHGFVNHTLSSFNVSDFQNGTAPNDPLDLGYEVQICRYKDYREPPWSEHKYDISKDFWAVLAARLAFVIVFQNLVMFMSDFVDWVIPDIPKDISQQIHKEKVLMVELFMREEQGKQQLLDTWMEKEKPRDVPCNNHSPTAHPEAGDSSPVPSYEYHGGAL
Method: In rat portal vein myocytes, at a holding potential of −50 mV, the external application of 10 mM caffeine induces a transient current depending on an increase in cytoplasmic Ca^2+ concentration, this current was characterized as Cl^− current [9] in the used experimental conditions. The amplitude of the Ca^2+-activated Cl^− current in our setup was 190 ± 20 pA (n = 101).
Isolated myocytes from rat portal veins were obtained by enzymatic dispersion, as described previously (Morel et al. 1996).
Voltage-clamp and membrane current recordings were made with a standard patch-clamp technique using a List EPC-7 patch-clamp amplifier (Darmstadt-Eberstadt, Germany). Patch pipettes had resistances of 3–4 MΩ. When [Ca^2+]i measurements were carried out simultaneously, Indo-1 (50 µM) was added to the pipette solution in the whole-cell recording mode and [Ca^2+]i was estimated from the 405/480 nm fluorescence ratio, using a calibration determined within cells, as previously described [36]. Patch-clamp experiments were carried out at 30 ± 1 °C. […]
The pooled data of n experiments are given as mean ± standard error. […] Inhibition-response curves were analyzed by a nonlinear least-squares fitting program according to models involving one or two binding sites (Graphpad-Prism software).

Substance | effect on K+ currents (confirmation of both types of K+ currents) [1] | inhibition of the Ca2+-activated Cl− current at 1 µM [2]
charybdotoxin | inhibition | 
chlorotoxin |  | 36 ± 9%
scyllatoxin (AFCNLRMCQLSCRSLGLLGKCIGDKCECVKH; UniProt P16341 1-31, looked up) [K+ channel toxin from Latoxan] | inhibition | 
